Measurements taken from US4593090A, “Novel nitrosourea compounds, method for preparing same, and pharmaceutical composition containing same” (Gogo Kimura, priority 1981, dated 1986).
Where two headings read alike, the source gives them in different places.

Tests used:
[1] = tested on: Leukemia L1210; assay: Activity against Leukemia L1210, intraperitoneal, increase in life span of mice; type: in vivo, female mice (BDF1 family); conditions: for ED (maximum ILS) / ED30: Mus musculus, L1210, ip, ip once a day for 5 successive days; for ED (maximum ILS): daily dosage giving maximum increase of life span, read-out: O.D. (optimum dosage); for ED30: daily dosage increasing average survival days by 30%, read-out: ILS30; for Survivors after 60 days / Max. ILS % / Therapeutic ratio TR: ip; for Survivors after 60 days: 6-membered group; for Max. ILS %: 60-day observation, versus control; for Therapeutic ratio TR: O.D./ILS30
Outline: (§1)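 L1210 cells (1×10^5) into abdominal cavity of female BDF1 mice, 20–23 g, n=6/group. Dosing 24 h post-implant, ip or po, qd ×5. 60-day observation; ILS% = mean survival vs untreated control; T.R. = O.D./ILS 30.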

[2] = tested on: Ehrlich acites carcinoma; assay: Growth-inhibiting effect against Ehrlich acites carcinoma; type: in vivo, male mice; conditions: 5 days; for response vs control in vivo at 50 mg/kg / response vs control in vivo at 200 mg/kg / response vs control in vivo at 25 mg/kg / response vs control in vivo at 100 mg/kg / response vs control in vivo at 3.2 mg/kg / response vs control in vivo at 12.5 mg/kg: Mus musculus, Ehrlich, 120 h; for response vs control in vivo at 50 mg/kg: 50 mg/kg/day ip; for response vs control in vivo at 200 mg/kg: 200 mg/kg/day ip; for response vs control in vivo at 25 mg/kg: 25 mg/kg/day ip; for response vs control in vivo at 100 mg/kg: 100 mg/kg/day ip; for response vs control in vivo at 3.2 mg/kg: 3.2 mg/kg/day ip; for response vs control in vivo at 12.5 mg/kg: 12.5 mg/kg/day ip
Outline: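 Activity graded from T/C% of total packed ascites cell volume on day 7 (treated vs untreated): - 100-66, + 65-41, ++ 40-11, +++ 10-0. Groups of 6 male mice bore 1×10^7 i.p.-implanted cells and received compound (1% Nikkol HCO-60) i.p. daily for 5 days from 24 hrs after implantation.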

[3] = Diuretic activity, acute sodium loaded mouse screening test; type: in vivo, male mice; conditions: 50 mg/kg oral in 1% saline; for Cl^- / K^+ / Na^+: urine
Protocol: The diuretic activity of the compounds of this invention was assayed by the diuresis screening test referred to as "acute sodium loaded mouse". This test was carried out by the following method.
The acute sodium loaded mouse screening test was carried out by using a 10-membered group of male mice (each weighing 18 to 24 g). Test compounds were incorporated in 1% saline (NaCl) solution and orally administered in a volume of 10 ml/kg. The mice were placed in metabolic cages. Each treated group consisted of 10-members. Five members were placed in one cage. Tests were conducted by oral administrations of (A) 1% saline (NaCl) solution to the control group and (B) 1% saline (NaCl) solution containing a test compound according to this invention.
The determination was carried out for sodium, potassium, and chlorine in each pooled urine sample. The determination of sodium and potassium was carried out by flame photometer. Chlorine was determined by chloride analysis apparatus. The analytical values of sodium, potassium, and chlorine were shown with an average mg equivalent (m Eq)/Kg/5 hours, and the diuretic activity was shown with an average urine volume (ml)/Kg/5 hours.

[4] = Acute toxicity (LD50, Behrens-Karber method); type: in vivo, ICR mice; conditions: mouse, in vivo, ip, mortality during 30 days
Protocol: Test compounds, dissolved or suspended in 0.5% aqueous CMC, were each intraperitoneally administered to ICR mice in a dose of 0.1 ml per 10 g body weight. LD50 (mg/kg) value of each test compound was calculated from the mortality of mice during 30 days by the Behrens-Karber method.

[5] = tested on: Leukemia L1210; assay: Activity against Leukemia L1210, oral, increase in life span of mice; type: in vivo, female mice (BDF1 family); conditions: for ED (maximum ILS) / ED30: Mus musculus, L1210, oral once a day for 5 successive days; for ED (maximum ILS): daily dosage giving maximum increase of life span, read-out: O.D. (optimum dosage); for ED30: daily dosage increasing average survival days by 30%, read-out: ILS30; for Survivors after 60 days / Max. ILS % / Therapeutic ratio TR: oral; for Survivors after 60 days: 6-membered group; for Max. ILS %: 60-day observation, versus control; for Therapeutic ratio TR: O.D./ILS30
Outline: as §1

Compound	ED (maximum ILS) [1]	ED30 [1]	Survivors after 60 days [1]	Max. ILS % [1]	Therapeutic ratio TR [1]	Urine volume [3]	Cl^- [3]	K^+ [3]	Na^+ [3]	LD50 at 720 h [4]	response vs control in vivo at 25 mg/kg ([2]; read-out: Activity)	response vs control in vivo at 25 mg/kg ([2]; read-out: T/C %)	response vs control in vivo at 100 mg/kg ([2]; read-out: Activity)	response vs control in vivo at 100 mg/kg ([2]; read-out: T/C %)	ED (maximum ILS) [5]	ED30 [5]	Survivors after 60 days [5]	Max. ILS % [5]	Therapeutic ratio TR [5]	other results
CCCCO[C@@H]1O[C@H](CN(C)C(=O)N(CCCl)N=O)[C@@H](O)[C@H](O)[C@H]1O [Compound 4, 3-methyl-3-(n-butyl β-D-glucopyranose-6-yl)-1-(2-chloroethyl)-1-nitrosourea]	80 mg/kg	2.7 mg/kg	6/6	> 700%	29.6	8.6 ml/kg/5 hrs.	0.6 mEq/kg/5 hrs.	0.9 mEq/kg/5 hrs.	0.5 mEq/kg/5 hrs.	220 mg/kg										response vs control in vivo at 50 mg/kg ([2]; read-out: Activity): 11 to 40%; response vs control in vivo at 50 mg/kg ([2]; read-out: T/C %): 30.2%; response vs control in vivo at 200 mg/kg ([2]; read-out: Activity): 0 to 10%; response vs control in vivo at 200 mg/kg ([2]; read-out: T/C %): 2.3%
CCCCO[C@H]1O[C@H](CN(CCCOC)C(=O)N(CCCl)N=O)[C@@H](O)[C@H](O)[C@H]1O [Compound 10]	150 mg/kg	3.1 mg/kg	6/6	> 700%	48.4	8.7 ml/kg/5 hrs.	0.6 mEq/kg/5 hrs.	0.8 mEq/kg/5 hrs.	0.5 mEq/kg/5 hrs.	480 mg/kg	0 to 10%	0%	0 to 10%	0%						
COCCN(C[C@H]1O[C@H](OCC(C)C)[C@H](O)[C@@H](O)[C@@H]1O)C(=O)N(CCCl)N=O [Compound 15, 3-(2-methoxyethyl)-3-(isobutyl α-D-glucopyranose-6-yl)-1-(2-chloroethyl)-1-nitrosourea]	180 mg/kg	2.9 mg/kg	6/6	> 700%	62.1	9.2 ml/kg/5 hrs.	0.7 mEq/kg/5 hrs.	0.9 mEq/kg/5 hrs.	0.6 mEq/kg/5 hrs.	570 mg/kg	0 to 10%	0%	0 to 10%	0%						
CCOCCCN(C[C@H]1O[C@H](OC(C)CC)[C@H](O)[C@@H](O)[C@@H]1O)C(=O)N(CCCl)N=O (stereo partly drawn) [Compound 19, 3-(3-ethoxy-n-propyl)-3-(sec-butyl α-D-glucopyranose-6-yl)-1-(2-chloroethyl)-1-nitrosourea]	180 mg/kg	3.33 mg/kg	6/6	> 700%	54.0	9.1 ml/kg/5 hrs.	0.7 mEq/kg/5 hrs.	0.8 mEq/kg/5 hrs.	0.6 mEq/kg/5 hrs.	560 mg/kg	0 to 10%	0%	0 to 10%	0%						
COCCN(C[C@H]1O[C@H](OC(C)COC)[C@H](O)[C@@H](O)[C@@H]1O)C(=O)N(CCCl)N=O (stereo partly drawn) [Compound 35, 3-(2-methoxyethyl)-3-(1-methyl-2-methoxyethyl α-D-glucopyranose-6-yl)-1-(2-chloroethyl)-1-nitrosourea]	150 mg/kg	2.23 mg/kg	6/6	> 700%	67.3	8.8 ml/kg/5 hrs.	0.6 mEq/kg/5 hrs.	0.9 mEq/kg/5 hrs.	0.5 mEq/kg/5 hrs.	470 mg/kg	0 to 10%	0%	0 to 10%	0%						
COCCCN(C[C@H]1O[C@H](OCC(C)C)[C@H](O)[C@H]1O)C(=O)N(CCCl)N=O [Compound 164, 3-(3-methoxy-n-propyl)-3-(isobutyl α-D-xylofuranose-5-yl)-1-(2-chloroethyl)-1-nitrosourea]	160 mg/kg	2.72 mg/kg	6/6	> 700%	58.8					520 mg/kg	0 to 10%	0%	0 to 10%	0%	185 mg/kg	14.5 mg/kg	5/6	> 620%	12.8	
CC(C)CN(C[C@H]1O[C@@H](OCC2CCCO2)[C@H](O)[C@@H]1O)C(=O)N(CCCl)N=O (stereo partly drawn) [Compound 170, 3-isobutyl-3-(tetrahydrofurfuryl β-D-ribofuranose-5-yl)-1-(2-chloroethyl)-1-nitrosourea]	160 mg/kg	3 mg/kg	5/6	> 620%	53.3					505 mg/kg	0 to 10%	0%	0 to 10%	0%	190 mg/kg	13.4 mg/kg	4/6	> 440%	14.2	
CC(C)CO[C@@H]1O[C@H](CN(C(=O)N(CCCl)N=O)C(C)(C)C)[C@@H](O)[C@H](O)[C@H]1O [Compound 175, 3-tert-butyl-3-(isobutyl β-D-glucopyranose-6-yl)-1-(2-chloroethyl)-1-nitrosourea]	170 mg/kg	3.33 mg/kg	6/6	> 700%	51.0	9.4 ml/kg/5 hrs.	0.8 mEq/kg/5 hrs.	0.9 mEq/kg/5 hrs.	0.6 mEq/kg/5 hrs.	550 mg/kg										
CC(CN1CCOCC1)O[C@@H]1O[C@H](CN(C(=O)N(CCCl)N=O)C(C)(C)C)[C@@H](O)[C@H](O)[C@H]1O (stereo partly drawn) [Compound 200, 3-tert-butyl-3-(1-morpholinoisopropyl β-D-glucopyranose-6-yl)-1-(2-chloroethyl)-1-nitrosourea]	150 mg/kg	3.11 mg/kg	6/6	> 700%	48.2					480 mg/kg	0 to 10%	0%	0 to 10%	0%	190 mg/kg	10.1 mg/kg	4/6	> 460%	18.9	
O=NN(CCCl)C(=O)N[C@@H]1O[C@H](CO)[C@@H](O)[C@H](O)[C@H]1O [GANU, 3-(β-D-glucopyranosyl)-1-(2-chloroethyl)-1-nitrosourea, reference compound]	6.2 mg/kg	0.45 mg/kg	4/6	> 425%	13.8					35 mg/kg					6.35 mg/kg	2.5 mg/kg	0/6	94%	2.54	Activity (toxicity in words) ([2]; 25.0 mg/kg/day ip): Toxic (6/6); response vs control in vivo at 3.2 mg/kg ([2]; read-out: Activity): 0 to 10%; response vs control in vivo at 3.2 mg/kg ([2]; read-out: T/C %): 0%; response vs control in vivo at 12.5 mg/kg ([2]; read-out: Activity): 0 to 10%; response vs control in vivo at 12.5 mg/kg ([2]; read-out: T/C %): 0%
